Calls of active or inactive are those of the source. The calls are words filed in the database; no cut-off is given here.
Legend:
HCT-116 [1] = test: Induction of apoptosis in human HCT116 cells assessed as increase in expression of Bax by Western blotting; format: functional, cell-based
HCT-116 [2] = test: Induction of apoptosis in human HCT116 cells assessed as decrease in expression of BCL-2 by Western blotting; format: functional, cell-based
HCT-116 [3] = test: Induction of apoptosis in human HCT116 cells assessed as cell shrinkage at IC50 concentration after 24 to 48 hrs using Hoechst 33342 staining by fluorescence microscope; format: functional, cell-based
HL-60 [4] = test: Induction of apoptosis in human HL60 cells assessed as chromatin condensation at IC50 concentration after 24 to 48 hrs using Hoechst 33342 staining by fluorescence microscope; format: functional, cell-based
HCT-116 [5] = test: Cytotoxicity against human HCT116 cells by MTT assay; format: functional, cell-based
[6] = molecular target: Mitogen-activated protein kinase; ERK1/ERK2 (Homo sapiens) (UniProt P27361+P28482); test: Activation of ERK1/2 in human HCT116 cells assessed as phosphorylated ERK1/2 level by Western blotting; format: cell-based; settings: HCT-116
Mitogen-activated protein kinase; ERK1/ERK2 (Homo sapiens), sequence (P27361 whole entry, looked up): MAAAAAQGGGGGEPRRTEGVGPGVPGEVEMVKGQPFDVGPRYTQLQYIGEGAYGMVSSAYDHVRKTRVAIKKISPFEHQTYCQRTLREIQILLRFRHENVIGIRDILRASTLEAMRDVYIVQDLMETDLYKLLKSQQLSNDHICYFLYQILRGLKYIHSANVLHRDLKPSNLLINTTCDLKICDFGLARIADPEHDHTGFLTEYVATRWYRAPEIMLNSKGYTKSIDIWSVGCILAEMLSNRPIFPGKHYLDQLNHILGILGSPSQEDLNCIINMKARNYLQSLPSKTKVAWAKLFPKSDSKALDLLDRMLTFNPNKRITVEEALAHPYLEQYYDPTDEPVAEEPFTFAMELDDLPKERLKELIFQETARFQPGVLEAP
Mitogen-activated protein kinase; ERK1/ERK2 (Homo sapiens), sequence (P28482 whole entry, looked up): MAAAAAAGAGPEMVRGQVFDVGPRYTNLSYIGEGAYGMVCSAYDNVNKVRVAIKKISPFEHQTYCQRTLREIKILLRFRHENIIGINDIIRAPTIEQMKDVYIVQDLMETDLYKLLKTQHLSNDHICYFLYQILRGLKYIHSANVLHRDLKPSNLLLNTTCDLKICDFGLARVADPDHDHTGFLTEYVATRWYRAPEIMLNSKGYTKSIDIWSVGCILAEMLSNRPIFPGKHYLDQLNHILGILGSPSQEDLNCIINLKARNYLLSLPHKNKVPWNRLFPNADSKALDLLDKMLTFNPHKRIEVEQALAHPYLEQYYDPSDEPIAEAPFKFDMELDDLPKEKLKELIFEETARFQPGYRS

HCT-116 [7] = test: Induction of apoptosis in human HCT116 cells assessed as chromatin condensation at IC50 concentration after 24 to 48 hrs using Hoechst 33342 staining by fluorescence microscope; format: functional, cell-based
HCT-116 [8] = test: Induction of apoptosis in human HCT116 cells assessed as increase in caspase-9 activation by Western blotting; format: functional, cell-based
HL-60 [9] = test: Induction of apoptosis in human HL60 cells assessed as cell shrinkage at IC50 concentration after 24 to 48 hrs using Hoechst 33342 staining by fluorescence microscope; format: functional, cell-based
HCT-116 [10] = test: Induction of apoptosis in human HCT116 cells assessed as membrane blebbing at IC50 concentration after 24 to 48 hrs using Hoechst 33342 staining by fluorescence microscope; format: functional, cell-based
HCT-116 [11] = test: Induction of apoptosis in human HCT116 cells assessed as increase in expression of DR5 by Western blotting; format: functional, cell-based
HCT-116 [12] = test: Induction of apoptosis in human HCT116 cells assessed as increase in induction of PARP cleavage by Western blotting; format: functional, cell-based
HL-60 [13] = test: Cytotoxicity against human HL60 cells by MTT assay; format: functional, cell-based
HL-60 [14] = test: Induction of apoptosis in human HL60 cells assessed as membrane blebbing at IC50 concentration after 24 to 48 hrs using Hoechst 33342 staining by fluorescence microscope; format: functional, cell-based

| Structure (SMILES) | IC50 (HCT-116 [5]) [µM] | IC50 (HL-60 [13]) [µM] | other results |
| --- | --- | --- | --- |
| COC(=O)[C@H]1O[C@@H](O[C@H]2CC[C@]3(C)[C@H]4CC=C5[C@@H]6CC(C)(C)CC[C@]6(C(=O)O)CC[C@@]5(C)[C@]4(C)CC[C@H]3C2(C)C)[C@H](O[C@H]2OC[C@@H](O)[C@H](O)[C@H]2O)[C@@H](O)[C@@H]1O [PESUDOGINSENOSIDE RP1 METHYL ESTER] | 6.5 | 41.5 | Activity (HCT-116 [1]): Active; Activity (HCT-116 [2]): Active; Activity (HCT-116 [3]): Active; Activity (HL-60 [4]): Active; Activity [6]: Active; Activity (HCT-116 [7]): Active; Activity (HCT-116 [8]): Active; Activity (HL-60 [9]): Active; Activity (HCT-116 [10]): Active; Activity (HCT-116 [11]): Active; Activity (HCT-116 [12]): Active; Activity (HL-60 [14]): Active |
| CC1(C)CC[C@]2(C(=O)O)CC[C@]3(C)C(=CC[C@@H]4[C@@]5(C)CC[C@H](O)C(C)(C)[C@@H]5CC[C@]43C)[C@@H]2C1 [OLEANOLIC_ACID] | 4.8 | 77.5 | – |
| O=C1c2c(O)ccc(O)c2C(=O)c2c(NCCNCCO)ccc(NCCNCCO)c21 [MITOXANTRONE] | 3.96 | 7.5 | – |
| COC(=O)[C@H]1O[C@@H](O[C@H]2CC[C@]3(C)[C@H]4CC=C5[C@@H]6CC(C)(C)CC[C@]6(C(=O)O[C@@H]6O[C@H](CO)[C@@H](O)[C@H](O)[C@H]6O)CC[C@@]5(C)[C@]4(C)CC[C@H]3C2(C)C)[C@H](O)[C@@H](O[C@@H]2O[C@H](CO)[C@@H](O)[C@H](O)[C@H]2O)[C@@H]1O[C@H]1O[C@@H](CO)[C@H](O)[C@H]1O [STIPULEANOSIDE R2 METHYL ESTER] | > 100 | 67.1 | – |
| COC(=O)[C@H]1O[C@@H](O[C@H]2CC[C@]3(C)[C@H]4CC=C5[C@@H]6CC(C)(C)CC[C@]6(C(=O)O)CC[C@@]5(C)[C@]4(C)CC[C@H]3C2(C)C)[C@H](O)[C@@H](O[C@@H]2O[C@H](CO)[C@@H](O)[C@H](O)[C@H]2O)[C@@H]1O [SPINASAPONIN A METHYL ESTER] | 0.63 | 4.44 | Activity (HCT-116 [1]): Active; Activity (HCT-116 [2]): Active; Activity (HCT-116 [3]): Active; Activity (HL-60 [4]): Active; Activity [6]: Active; Activity (HCT-116 [7]): Active; Activity (HCT-116 [8]): Active; Activity (HL-60 [9]): Active; Activity (HCT-116 [10]): Active; Activity (HCT-116 [11]): Active; Activity (HCT-116 [12]): Active; Activity (HL-60 [14]): Active |
| CC1(C)CC[C@]2(C(=O)O[C@@H]3O[C@H](CO)[C@@H](O)[C@H](O)[C@H]3O)CC[C@]3(C)C(=CC[C@@H]4[C@@]5(C)CC[C@H](O[C@@H]6O[C@H](C(=O)O)[C@@H](O)[C@H](O)[C@H]6O[C@H]6OC[C@@H](O)[C@H](O)[C@H]6O)C(C)(C)[C@@H]5CC[C@]43C)[C@@H]2C1 [PSEUDOGINSENOSIDE RT1] | > 100 | 91.2 | – |
| CC1(C)CC[C@]2(C(=O)O[C@@H]3O[C@H](CO)[C@@H](O)[C@H](O)[C@H]3O)CC[C@]3(C)C(=CC[C@@H]4[C@@]5(C)CC[C@H](O[C@@H]6O[C@H](C(=O)O)[C@@H](O)[C@H](O[C@@H]7O[C@H](CO)[C@@H](O)[C@H](O)[C@H]7O)[C@H]6O)C(C)(C)[C@@H]5CC[C@]43C)[C@@H]2C1 | > 100 | 73 | – |
| CC1(C)CC[C@]2(C(=O)O[C@@H]3O[C@H](CO)[C@@H](O)[C@H](O)[C@H]3O)CC[C@]3(C)C(=CC[C@@H]4[C@@]5(C)CC[C@H](O[C@@H]6O[C@H](CO)[C@@H](O)[C@H](O)[C@H]6O[C@H]6OC[C@@H](O)[C@H](O)[C@H]6O)C(C)(C)[C@@H]5CC[C@]43C)[C@@H]2C1 | 75.9 | > 100 | – |
| COC(=O)[C@H]1O[C@@H](O[C@H]2CC[C@]3(C)[C@H]4CC=C5[C@@H]6CC(C)(C)CC[C@]6(C(=O)O[C@@H]6O[C@H](CO)[C@@H](O)[C@H](O)[C@H]6O)CC[C@@]5(C)[C@]4(C)CC[C@H]3C2(C)C)[C@H](O)[C@@H](O[C@@H]2O[C@H](CO)[C@@H](O)[C@H](O)[C@H]2O)[C@@H]1O | > 100 | 83.9 | – |
| COC(=O)[C@H]1O[C@@H](O[C@H]2CC[C@]3(C)[C@H]4CC=C5[C@@H]6CC(C)(C)CC[C@]6(C(=O)O[C@@H]6O[C@H](CO)[C@@H](O)[C@H](O)[C@H]6O)CC[C@@]5(C)[C@]4(C)CC[C@H]3C2(C)C)[C@H](O)[C@@H](O)[C@@H]1O[C@H]1O[C@@H](CO)[C@H](O)[C@H]1O [ARALOSIDE A METHYL ESTER] | > 100 | 63.4 | – |
| CC1(C)CC[C@]2(C(=O)O[C@@H]3O[C@H](CO)[C@@H](O)[C@H](O)[C@H]3O)CC[C@]3(C)C(=CC[C@@H]4[C@@]5(C)CC[C@H](O[C@@H]6O[C@H](C(=O)O)[C@@H](O[C@H]7O[C@@H](CO)[C@H](O)[C@H]7O)[C@H](O[C@@H]7O[C@H](CO)[C@@H](O)[C@H](O)[C@H]7O)[C@H]6O)C(C)(C)[C@@H]5CC[C@]43C)[C@@H]2C1 [STIPULEANOSIDE R2] | > 100 | > 100 | – |
| CC1(C)CC[C@]2(C(=O)O[C@@H]3O[C@H](CO)[C@@H](O)[C@H](O)[C@H]3O)CC[C@]3(C)C(=CC[C@@H]4[C@@]5(C)CC[C@H](O[C@@H]6O[C@H](C(=O)O)[C@@H](O)[C@H](O)[C@H]6O)C(C)(C)[C@@H]5CC[C@]43C)[C@@H]2C1 [CHIKUSETSUSAPONIN IVA] | 78.1 | 76.2 | – |
| COC(=O)[C@H]1O[C@@H](O[C@H]2CC[C@]3(C)[C@H]4CC=C5[C@@H]6CC(C)(C)CC[C@]6(C(=O)O[C@@H]6O[C@H](CO)[C@@H](O)[C@H](O)[C@H]6O)CC[C@@]5(C)[C@]4(C)CC[C@H]3C2(C)C)[C@H](O[C@H]2OC[C@@H](O)[C@H](O)[C@H]2O)[C@@H](O)[C@@H]1O [PSEUDOGINSENOSIDE RT1 METHYL ESTER] | > 100 | > 100 | – |

From ChEMBL document CHEMBL1287676, “Oleanane-type triterpenoids from Panax stipuleanatus and their anticancer activities” (Bioorg Med Chem Lett, 2010)
